The assay addresses T1, recombinant IRAK-4 kinase (Homo sapiens, UniProt Q9NWZ3).
T1 construct: purchased Millipore, USA
T1 sequence (Q9NWZ3 1-460): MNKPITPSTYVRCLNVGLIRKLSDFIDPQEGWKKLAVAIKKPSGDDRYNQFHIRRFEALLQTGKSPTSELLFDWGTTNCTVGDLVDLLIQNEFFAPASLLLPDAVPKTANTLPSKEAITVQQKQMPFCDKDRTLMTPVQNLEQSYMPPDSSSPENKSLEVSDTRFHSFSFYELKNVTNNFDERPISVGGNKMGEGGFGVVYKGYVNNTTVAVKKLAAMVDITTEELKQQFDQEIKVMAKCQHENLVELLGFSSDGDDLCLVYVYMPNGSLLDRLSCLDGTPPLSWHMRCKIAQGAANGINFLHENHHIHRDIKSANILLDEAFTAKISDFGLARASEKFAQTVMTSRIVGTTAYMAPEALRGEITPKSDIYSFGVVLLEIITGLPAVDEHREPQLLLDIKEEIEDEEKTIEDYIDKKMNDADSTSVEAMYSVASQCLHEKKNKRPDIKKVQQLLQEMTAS
As to the kind of experiment: IRAK-4 Biochemical Assay (TR-FRET, percent inhibition). The settings on record: TR-FRET, 20 μM ATP, 100 nM Biotin Histone H3; for inhibition at 0.1 µM: read-out: % inhibition of IRAK-4 @0.1 μM, compound at 0.1 μM; for inhibition at 1 µM: read-out: % inhibition of IRAK-4 @ 1 μM, compound at 1 μM. The method in brief:
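IRAK-4 pre-incubated with compound 30 min at room temperature in Tris-HCl pH 7.5 buffer with MgCl2, MnCl2 and DTT, then reacted 30 min with 100 nM biotin-histone H3 and 20 μM ATP. EDTA stop with Eu-anti-phospho-H3 (Ser10) and APC-streptavidin. Percent inhibition derived from the 665/615 nm emission ratio at 340 nm excitation.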

Counter-ions that a name gives are not always drawn.

Experimental findings from patent US20180208605A1, “Substituted Aza Compounds as IRAK-4 Inhibitors” (AURIGENE DISCOVERY TECHNOLOGIES LIMITED, priority 2015, published 2018) are described below.

For `Cc1ccc(-c2nc3nc(N4CCOCC4)sc3cc2NC(=O)c2cnn3cccnc23)nc1` [Example 20, N-(5-(5-methylpyridin-2-yl)-2-morpholinothiazolo[4,5-b]pyridin-6-yl)pyrazolo[1,5-a]pyrimidine-3-carboxamide], the inhibition at 0.1 µM came out at 97% and the inhibition at 1 µM was found to be 98%. For `O=C(Nc1cc2sc(N3CCOCC3)nc2nc1C1CC1)c1cnn2cccnc12` [Example 105, N-(5-cyclopropyl-2-morpholinothiazolo[4,5-b]pyridin-6-yl)pyrazolo[1,5-a]pyrimidine-3-carboxamide], in that order: 96% and 97%. For `Cc1cc(-c2ncc(C(=O)Nc3cc4sc(N5CCOCC5)nc4nc3N3CCC(O)(CO)CC3)o2)ccn1` [Example 4, N-(5-(4-hydroxy-4-(hydroxymethyl)piperidin-1-yl)-2-morpholinothiazolo[4,5-b]pyridin-6-yl)-2-(2-methylpyridin-4-yl)oxazole-5-carboxamide hydrochloride] the same measures were 99% and 99%. As to `O=C(Nc1cc2sc(N3CCOCC3)nc2nc1N1CCC(O)(CO)CC1)c1cccc(N2CC[C@H](O)C2)n1` [Example 8, (S)-N-(5-(4-hydroxy-4-(hydroxymethyl)piperidin-1-yl)-2-morpholinothiazolo[4,5-b]pyridin-6-yl)-6-(3-hydroxypyrrolidin-1-yl)picolinamide hydrochloride], the inhibition at 0.1 µM was found to be 97% and the inhibition at 1 µM amounted to 98%. Turning to `Nc1cc(-c2nc(C(=O)Nc3cc4oc(N5CCOCC5)nc4nc3N3CC[C@@H](O)C3)co2)c(Cl)cn1` [Example 88, (R)-2-(2-amino-5-chloropyridin-4-yl)-N-(5-(3-hydroxypyrrolidin-1-yl)-2-morpholinooxazolo[4,5-b]pyridin-6-yl)oxazole-4-carboxamide], the inhibition at 0.1 µM is 15%. For `O=C(Nc1cc2sc(N3CCOCC3)nc2nc1N1CCCCC1)c1cncc(N2CC[C@@H](O)C2)n1` [Example 62, (R)-6-(3-hydroxypyrrolidin-1-yl)-N-(2-morpholino-5-(piperidin-1-yl)thiazolo[4,5-b]pyridin-6-yl)pyrazine-2-carboxamide], the inhibition at 0.1 µM was 93% and the inhibition at 1 µM was 95%. For `O=C(Nc1cc2sc(N3CCOCC3)nc2nc1N1CCCCC1)c1cccc(N2CCC(CO)C2)n1` (stereo not shown) [Example 77, 6-(3-(hydroxymethyl)pyrrolidin-1-yl)-N-(2-morpholino-5-(piperidin-1-yl)thiazolo[4,5-b]pyridin-6-yl)picolinamide], in that order: 98% and 99%. For `Cc1cc(-c2nc(C(=O)Nc3cc4sc(N5CCNCC5)nc4nc3N3CCCCC3)co2)ccn1` [Example 7, 2-(2-methylpyridin-4-yl)-N-(2-(piperazin-1-yl)-5-(piperidin-1-yl)thiazolo[4,5-b]pyridin-6-yl)oxazole-4-carboxamide hydrochloride] the same measures were 99% and 99%. For `NCC(=O)OC1CCN(c2cccc(C(=O)Nc3cc4sc(N5CCOCC5)nc4nc3N3CCOCC3)n2)C1` (stereo not shown) [Example 79, 1-(6-((2,5-dimorpholinothiazolo[4,5-b]pyridin-6-yl)carbamoyl)pyridin-2-yl)pyrrolidin-3-yl glycinate] the same measures were 70% and 96%. With `O=C(Nc1cc2sc(N3CCOCC3)nc2nc1N1CCCCC1)c1cccc(N2CCCC(CO)C2)n1` (stereo not shown) [Example 78, 6-(3-(hydroxymethyl)piperidin-1-yl)-N-(2-morpholino-5-(piperidin-1-yl)thiazolo[4,5-b]pyridin-6-yl)picolinamide], the inhibition at 0.1 µM was determined as 99% and the inhibition at 1 µM turned out to be 96%. For `Cc1nc2nc(N3CCOCC3)sc2cc1NC(=O)c1cccc(N2CCC(O)C2)n1` (stereo not shown) [Example 43, 6-(3-hydroxypyrrolidin-1-yl)-N-(5-methyl-2-morpholinothiazolo[4,5-b]pyridin-6-yl)picolinamide] the same measures were 50% and 92%. With `Cl.O=C(Nc1cc2sc(N3CCOCC3)nc2nc1C1CC1)c1cnn2cccnc12` [Example 106, N-(5-cyclopropyl-2-morpholinothiazolo[4,5-b]pyridin-6-yl)pyrazolo[1,5-a]pyrimidine-3-carboxamide hydrochloride], the “% inhibition of IRAK-4 @0.1 μM” value (compound at 0.1 μM) turned out to be 93%. Further, for the setting “compound at 1 μM”, the “% inhibition of IRAK-4 @ 1 μM” value is listed as 97%.

Turning to `NCC(=O)O[C@H]1CCN(c2cccc(C(=O)Nc3cc4sc(N5CCOCC5)nc4nc3N3CCCCC3)n2)C1` [Example 36, (S)-1-(6-((2-morpholino-5-(piperidin-1-yl)thiazolo[4,5-b]pyridin-6-yl)carbamoyl)pyridin-2-yl)pyrrolidin-3-ylglycinate 2,2,2-trifluoroacetate], the inhibition at 0.1 µM was determined as 94% and the inhibition at 1 µM is 99%. For `NC1CCN(c2ccn3ncc(C(=O)Nc4cc5sc(N6CCOCC6)nc5nc4C4CC4)c3n2)C1` (stereo not shown) [Example 23, 5-(3-aminopyrrolidin-1-yl)-N-(5-cyclopropyl-2-morpholinothiazolo[4,5-b]pyridin-6-yl)pyrazolo[1,5-a]pyrimidine-3-carboxamide hydrochloride], in that order: 86% and 97%. For `O=C(Nc1cc2sc(N3CCOCC3)nc2nc1N1CCC[C@@H](O)C1)c1cccc(N2CCCCC2)n1` [Example 40, (R)-N-(5-(3-hydroxypiperidin-1-yl)-2-morpholinothiazolo[4,5-b]pyridin-6-yl)-6-(piperidin-1-yl)picolinamide] the same measures were 96% and 99%. For `Nc1cccc(-c2nc(C(=O)Nc3cc4oc(N5CCOCC5)nc4nc3N3CC[C@@H](O)C3)co2)n1` [Example 87, (R)-2-(6-aminopyridin-2-yl)-N-(5-(3-hydroxypyrrolidin-1-yl)-2-morpholinooxazolo[4,5-b]pyridin-6-yl)oxazole-4-carboxamide hydrochloride], in that order: 21% and 57%.

Consider `Cc1cc(-c2c[nH]c(C(=O)Nc3cc4sc(N5CCOCC5)nc4nc3N3CC[C@@H](O)C3)c2)ccn1` [Example 73, (R)-N-(5-(3-hydroxypyrrolidin-1-yl)-2-morpholinothiazolo[4,5-b]pyridin-6-yl)-4-(2-methylpyridin-4-yl)-1H-pyrrole-2-carboxamide], for which the inhibition at 0.1 µM came to 69% and the inhibition at 1 µM stood at 97%.

Regarding `O=C(Nc1cc2sc(N3CCOCC3)nc2nc1N1CCC[C@@H](O)C1)c1cccc(N2CCC(O)CC2)n1` [Example 38, (R)-6-(4-hydroxypiperidin-1-yl)-N-(5-(3-hydroxypiperidin-1-yl)-2-morpholinothiazolo[4,5-b]pyridin-6-yl)picolinamide], the inhibition at 0.1 µM came to 98% and the inhibition at 1 µM is 99%. For `NC1CCN(c2ccn3ncc(C(=O)Nc4cc5sc(N6CCOCC6)nc5nc4C4CC4)c3n2)CC1` [Example 99, 5-(4-aminopiperidin-1-yl)-N-(5-cyclopropyl-2-morpholinothiazolo[4,5-b]pyridin-6-yl)pyrazolo[1,5-a]pyrimidine-3-carboxamide 2,2,2-trifluoroacetate] the same measures were 89% and 96%.
